From patent publication US12251459B2, “Compositions, formulations, and methods for hair treatment” (Oddity Labs, LLC, priority 2022, dated 2025)

tested on: TK.6 lymphoblasts; assay: TK.6 micronucleus assay; format: cell-based; conditions: not given
Procedure: The safety/toxicology profiles of a compound or salt of the present disclosure was evaluated via a series of in vitro genotoxicity assays, including the SOS-chromotest to determine bacterial genotoxicity, and the TK.6 micronucleus assay to determine chromosomal damage and forward mutations. Standard reactive oxygen species (ROS) and caspase 3/7 assay were conducted to determine general cellular toxicity. Moreover, a series of sensitization tests were conducted to predict any potential skin sensitivity. These include the direct peptide reactivity assay to evaluate haptenization, the KeratinoSens reporter assay to determine potential sensitivity via the activation of a cytoprotective pathway, and an immunological assay using human immature monocyte-derived dendritic cells to evaluate any potential immunogenicity.
TK.6 lymphoblasts are a well-studied cell line commonly used for gene mutation analyses. They are heterozygous for the thymidine kinase gene (TK) and enable the detection of forward mutations and chromosomal damage, which manifests as micronuclei and are detectable via flow cytometry.
TK.6 cells were dosed with the example compounds or a vehicle control (0.1% v/v DMSO) and cultured with or without S9 metabolic activation for 24 hr. […] Methyl methanesulfonate, a known genotoxic, alkylating agent was used as a positive control for micronuclei detection.
The micronucleus assay was also performed to determine if the compounds are genotoxic by evaluating the presence of micronuclei. […] In combination. […] I-17 elicited genotoxicity at >3.125 μg/mL.

Structure (SMILES) | micronuclei formation / genotoxic effect in TK.6 cells
COc1ccc(CCCc2nc3ccccc3[nH]2)cc1 [VII-14, 1H-Benzimidazole, 2-[3-(4-methoxyphenyl)propyl]-] | do not promote any micronuclei formation

tested on: human hair follicle dermal papilla cells (hFDPC); assay: Human follicle dermal papilla cells (hFDPC) proliferation assay; format: cell-based; conditions: hFDPCs supplemented with BIO, BMP-2 and FGFβ
Excerpt: In Table 8, A represents less than 20% of increased proliferation of hFDPCs, B represents 20-40%, and C represents larger than 40% of increased proliferation of hFDPCs.

Structure (SMILES) | Percent Increase Proliferation of hFDPCs (%)
COc1ccc(CCCc2nc3ccccc3[nH]2)cc1 [VII-14, 1H-Benzimidazole, 2-[3-(4-methoxyphenyl)propyl]-] | A (A represents less than 20% of increased proliferation of hFDPCs)
Cc1ccc(C(=O)N2CCN(c3nnc(-c4ccc(C)cc4)c4ccccc34)CC2)cc1 [II-2, Methanone, (4-methylphenyl)[4-[4-(4-methylphenyl)-1-phthalazinyl]-1-piperazinyl]-] | B (B represents 20-40%)
Cc1ccc(-n2ncc3c(N4CCCCC4)ncnc32)c(C)c1 [V-2, 1H-Pyrazolo[3,4-d] pyrimidine, 1-(2,4-dimethylphenyl)-4-(1-piperidinyl)-] | A (A represents less than 20% of increased proliferation of hFDPCs)
C=CCc1cc(/C=C2\C(=O)NC(=O)N(c3cc(C)cc(C)c3)C2=O)cc(OCC)c1O [I-2, 2,4,6(1H,3H,5H)-Pyrimidinetrione, 1-(3,5-dimethylphenyl)-5-[[3-ethoxy-4-hydroxy-5-(2-propen-1-yl)phenyl]methylene]-] | B (B represents 20-40%)
Cc1ccc(-c2nc3ncccc3o2)cc1NC(=S)NC(=O)c1ccc(C(C)(C)C)cc1 [VII-24, Benzamide, 4-(1,1-dimethylethyl)-N-[[(2-methyl-5-oxazolo[4,5-b]pyridin-2-ylphenyl)amino]thioxomethyl]-] | A (A represents less than 20% of increased proliferation of hFDPCs)
Cc1cccc(CN2CCN(c3ncccn3)CC2)c1 [VII-15, Pyrimidine, 2-[4-[(3-methylphenyl)methyl]-1-piperazinyl]-] | A (A represents less than 20% of increased proliferation of hFDPCs)
CCOC(=O)c1cnn(-c2ccc(C(=O)Nc3ccc(C(=O)NCC(=O)OC)cc3)cc2)c1C [VII-6, 1H-Pyrazole-4-carboxylic acid, 1-[4-[[[4-[[(2-methoxy-2-oxoethyl)amino]carbonyl]phenyl]amino]carbonyl]phenyl]-5-methyl-, ethyl ester] | A (A represents less than 20% of increased proliferation of hFDPCs)
O=C(C1CCN(S(=O)(=O)c2ccccc2)CC1)N1CCN(Cc2ccc3c(c2)OCO3)CC1 [VI-1, Methanone, [4-(1,3-benzodioxol-5-ylmethyl)-1-piperazinyl][1-(phenylsulfonyl)-4-piperidinyl]-] | A (A represents less than 20% of increased proliferation of hFDPCs)
CCn1c(SCC(=O)c2ccc(S(=O)(=O)N3CCCC3)cc2)nnc1-c1ccco1 [VII-4, Ethanone, 2-[[4-ethyl-5-(2-furanyl)-4H-1,2,4-triazol-3-yl]thio]-1-[4-(1-pyrrolidinylsulfonyl)phenyl]-] | A (A represents less than 20% of increased proliferation of hFDPCs)
CCS(=O)(=O)N1CCN(c2ncnc3cc[nH]c23)CC1 [V-4, 5H-Pyrrolo[3,2-d] pyrimidine, 4-[4-(ethylsulfonyl)-1-piperazinyl]-] | A (A represents less than 20% of increased proliferation of hFDPCs)
CC1CCCCN1c1nc(-c2ccccc2)nc2sc(-c3ccccc3)cc12 (stereo not drawn) [V-3, Thieno[2,3-d] pyrimidine, 4-(2-methyl-1-piperidinyl)-2,6-diphenyl-] | B (B represents 20-40%)
Cc1cc(C)cc(N2Cc3ccccc3C2)c1 [VII-12, 1H-Isoindole, 2-(3,5-dimethylphenyl)-2,3-dihydro-] | A (A represents less than 20% of increased proliferation of hFDPCs)
Cc1ccc(Cn2ncc3c(N4CCCC4)ncnc32)cc1 [V-1, 1H-Pyrazolo[3,4-d] pyrimidine, 1-[(4-methylphenyl)methyl]-4-(1-pyrrolidinyl)-] | A (A represents less than 20% of increased proliferation of hFDPCs)
C=CCN1C(=O)NC(=O)/C(=C\c2ccc(OC)cc2OC)C1=O [I-6, 2,4,6(1H,3H,5H)-Pyrimidinetrione, 5-[(2,4-dimethoxyphenyl)methylene]-1-(2-propen-1-yl)-] | A (A represents less than 20% of increased proliferation of hFDPCs)
Cc1cccc(Cn2cnc(NC(=O)c3cc(-c4cccnc4)nc4ccc(C)cc34)n2)c1 [III-2, 4-Quinolinecarboxamide, 6-methyl-N-[1-[(3-methylphenyl)methyl]-1H-1,2,4-triazol-3-yl]-2-(3-pyridinyl)-] | A (A represents less than 20% of increased proliferation of hFDPCs)
NC1=NC2(CCCCCC2)n2c(nc3ccccc32)N1 [VII-9, Spiro[cycloheptane-1, 4′(1′H)-[1,3,5]triazino[1,2-a]benzimidazol]-2′-amine] | B (B represents 20-40%)
C=CCc1cc(/C=C2\C(=O)NC(=S)N(C)C2=O)cc(OC)c1OCC [I-10] | A (A represents less than 20% of increased proliferation of hFDPCs)
COc1ccccc1-n1c(SCc2cc(=O)oc3cc(O)ccc23)nc2ccccc2c1=O [IV-3, 4(3H)-Quinazolinone, 2-[[(7-hydroxy-2-oxo-2H-1-benzopyran-4-yl)methyl]thio]-3-(2-methoxyphenyl)-] | B (B represents 20-40%)
C=CCc1cc(/C=C2\C(=O)NC(=O)N(c3ccc(C)c(C)c3)C2=O)cc(OC)c1O [I-4] | A (A represents less than 20% of increased proliferation of hFDPCs)
CSc1nnc(SCc2cc(=O)oc3cc(O)ccc23)s1 [IV-2, 2H-1-Benzopyran-2-one, 7-hydroxy-4-[[[5-(methylthio)-1,3,4-thiadiazol-2-yl]thio]methyl]-] | A (A represents less than 20% of increased proliferation of hFDPCs)
Cc1ccc(-c2cc(C(=O)NNC(=O)NC34CC5CC(CC(C5)C3)C4)c3ccccc3n2)c(C)c1 [III-5, 4-Quinolinecarboxylic acid, 2-(2,4-dimethylphenyl)-, 2-[(tricyclo[3.3.1.1^3,7]dec-1-ylamino)carbonyl]hydrazide] | A (A represents less than 20% of increased proliferation of hFDPCs)
O=C1Nc2ccccc2SC1CC(=O)N1CCN(C(c2ccccc2)c2ccccc2)CC1 (stereo not drawn) [VII-17, 2H-1,4-Benzothiazin-3(4H)-one, 2-[2-[4-(diphenylmethyl)-1-piperazinyl]-2-oxoethyl]-] | A (A represents less than 20% of increased proliferation of hFDPCs)
C=CCc1cc(/C=C2\C(=O)NC(=O)N(C)C2=O)cc(OC)c1O [I-16] | A (A represents less than 20% of increased proliferation of hFDPCs)
Cc1cc(C)n(Cc2ccc(NC(=O)c3cc(-c4ccc(C)c(C)c4)nc4ccccc34)cc2)n1 [III-3, 4-Quinolinecarboxamide, 2-(3,4-dimethylphenyl)-N-[4-[(3,5-dimethyl-1H-pyrazol-1-yl)methyl]phenyl]-] | B (B represents 20-40%)
C=CCOc1ccc(/C=C2/C(=O)NC(=O)N(CC=C)C2=O)cc1OC [I-7] | A (A represents less than 20% of increased proliferation of hFDPCs)
CCOC(=O)c1cnn(-c2cccc(NC(=O)C3CCN(c4ncccn4)CC3)c2)c1C [VII-8, 1H-Pyrazole-4-carboxylic acid, 5-methyl-1-[3-[[[1-(2-pyrimidinyl)-4-piperidinyl]carbonyl]amino]phenyl]-, ethyl ester] | A (A represents less than 20% of increased proliferation of hFDPCs)
Oc1c2c(c(O)n1C1CCCCC1)CC=CC2 [VII-13, 1H-Isoindole-1,3(2H)-dione, 2-cyclohexyl-3a,4,7,7a-tetrahydro-] | A (A represents less than 20% of increased proliferation of hFDPCs)
Cc1ccccc1Cn1nc(C)c(NC(=O)c2csc3ccccc23)c1C [VII-26, Benzo[b]thiophene-3-carboxamide, N-[3,5-dimethyl-1-[(2-methylphenyl)methyl]-1H-pyrazol-4-yl]-] | A (A represents less than 20% of increased proliferation of hFDPCs)

tested on: HepG2 cells; assay: Caspase 3/7 activity in HepG2 cells; format: cell-based; conditions: HepG2, >2-log concentration range, versus % v/v-matched DMSO
Procedure: Cells were treated with either the example compounds or vehicle control containing correspondingly % v/v-matched amounts of DMSO spanning a >2-log concentration range. Data represents mean±s.d. and representative of at least 2 experimental replicates.
HepG2 cells are an immortalized liver cell line commonly used to study apoptosis induced by small molecules. Cells were treated with either the example compounds or vehicle control containing correspondingly % v/v-matched amounts of DMSO spanning a >2-log concentration range. Data represents mean±s.d. and representative of at least 2 experimental replicates.

Structure (SMILES) | Normalized caspase 3/7 activity
COc1ccc(CCCc2nc3ccccc3[nH]2)cc1 [VII-14, 1H-Benzimidazole, 2-[3-(4-methoxyphenyl)propyl]-] | did not exhibit any caspase activation
